{
  "source": "ChEMBL document CHEMBL2010715",
  "about": "“Verrulactones A and B, new inhibitors of Staphylococcus aureus enoyl-ACP reductase produced by Penicillium verruculosum F375” (Bioorg Med Chem Lett, 2012)",
  "key": {"Staphylococcus aureus [1]": {"test_system": "Staphylococcus aureus", "assay": "Antibacterial activity against methicillin-resistant Staphylococcus aureus CCARM 3167", "type": "functional"}, "Bacillus cereus": {"test_system": "Bacillus cereus", "assay": "Antibacterial activity against Bacillus cereus KCTC 1661", "type": "functional"}, "Pseudomonas aeruginosa": {"test_system": "Pseudomonas aeruginosa", "assay": "Antibacterial activity against Pseudomonas aeruginosa KCTC 2004", "type": "functional, organism-based"}, "Escherichia coli": {"test_system": "Escherichia coli", "assay": "Antibacterial activity against Escherichia coli KCTC 1683", "type": "functional, organism-based"}, "[2]": {"assay": "(§1) Inhibition of Staphylococcus aureus Fab1"}, "Staphylococcus aureus [3]": {"test_system": "Staphylococcus aureus", "assay": "as §1"}, "Staphylococcus aureus [4]": {"test_system": "Staphylococcus aureus", "assay": "Antibacterial activity against Staphylococcus aureus RN4220", "type": "functional"}},
  "note": "Calls of active or inactive are those of the source. The calls are words filed in the database; no cut-off is given here.",
  "data": [
    {"smiles": "COc1cc(O)c2c(=O)oc3cc(O)c(O)c(-c4c(O)c(O)cc5oc(=O)c6c(O)cc(OC)cc6c45)c3c2c1", "note": "[VERRULACTONE A]", "values": [
      {"measurement": "MIC", "setting": "Staphylococcus aureus [1]", "value": 8, "unit": "µg/mL"},
      {"measurement": "MIC", "setting": "Bacillus cereus", "value": 8, "unit": "µg/mL"},
      {"measurement": "Activity", "setting": "Pseudomonas aeruginosa", "value": "inactive"},
      {"measurement": "Activity", "setting": "Escherichia coli", "value": "inactive"},
      {"measurement": "IC50", "setting": "[2]", "value": 920, "unit": "nM"},
      {"measurement": "inhibition", "setting": "Staphylococcus aureus [3]", "value": "Dose-dependent effect"},
      {"measurement": "MIC", "setting": "Staphylococcus aureus [4]", "value": 8, "unit": "µg/mL"}
    ]},
    {"smiles": "COc1cc(O)c2c(=O)oc3c(-c4c(O)c(O)cc5oc(=O)c6c(O)cc(OC)cc6c45)c(O)c(O)cc3c2c1", "note": "[VERRULACTONE B]", "values": [
      {"measurement": "MIC", "setting": "Staphylococcus aureus [1]", "value": 16, "unit": "µg/mL"},
      {"measurement": "IC50", "setting": "[2]", "value": 1410, "unit": "nM"},
      {"measurement": "MIC", "setting": "Staphylococcus aureus [4]", "value": 16, "unit": "µg/mL"}
    ]}
  ]
}
